Source: patent US10517294B2, “Dihydrothiophene derivatives as insecticidal compounds” (priority 2012, dated 2019)

Assays:
Type in all cases: in vivo
Euschistus heros = Euschistus heros (neotropical brown stink bug), sprayed soybean plants; settings: 120 h, application rate 50 ppm, N2 nymphs on sprayed soybean plants, 5 days after infestation, read-out: control (at least one of mortality, growth inhibition)
Experimental: Two weeks old soybean plants were sprayed in a turn table spray chamber with the diluted spray solutions. After drying 2 soybean seeds were added and plants were infested with 10 N2 nymphs of the neotropical brown stink bug Euschistus heros in plastic test boxes. The samples were assessed for mortality and growth inhibition 5 days after infestation. Control of Euschistus heros by a test sample is noted when at least one of mortality and growth inhibition is better than the untreated sample.

Tetranychus urticae = Tetranychus urticae (two-spotted spider mite), sprayed bean leaf discs; settings: foliar, 192 h, application rate 200 ppm, mixed ages on bean leaf discs, 8 days after infestation, read-out: control (mortality, mobile stages)
Experimental: Bean leaf discs on agar in 24-well microtiter plates were sprayed with aqueous test solutions prepared from 10′000 ppm DMSO stock solutions. After drying the leaf discs were infested with a mite population of mixed ages. The samples were assessed for mortality (mobile stages) 8 days after infestation.

Diabrotica balteata [1] = experiment: Diabrotica balteata (corn root worm), artificial diet; settings: 120 h, application rate 200 ppm, L2 larvae on artificial diet, 5 days after infestation, read-out: control (at least one of mortality, growth inhibition)
Experimental: (§1) 24-well microtiter plates with artificial diet were treated with aqueous test solutions prepared from 10′000 ppm DMSO stock solutions by pipetting. After drying, the plates were infested with L2 larvae (6 to 10 per well). The samples were assessed for mortality and growth inhibition 5 days after infestation. Control of Diabrotica balteata by a test sample is noted when at least one of mortality and growth inhibition is better than the untreated sample.

Heliothis virescens = Heliothis virescens (tobacco budworm), eggs on artificial diet; settings: application rate 200 ppm, eggs 0-24 h old on artificial diet, 5 days after infestation, read-out: control (at least one of egg mortality, larval mortality, growth inhibition)
Experimental: Eggs (0-24 h old) were placed in 24-well microtiter plates on artificial diet and treated with aqueous test solutions prepared from 10′000 ppm DMSO stock solutions by pipetting. The samples were assessed for egg mortality, larval mortality and growth inhibition 5 days after infestation. Control of Heliothis virescens by a test sample is noted when at least one of egg mortality, larval mortality and growth inhibition is better than the untreated sample.

Thrips tabaci = Thrips tabaci (onion thrips), sprayed sunflower leaf discs; settings: foliar, 144 h, application rate 200 ppm, mixed ages on sunflower leaf discs, 6 days after infestation, read-out: control (mortality)
Experimental: Sunflower leaf discs were placed on agar in 24-well microtiter plates and sprayed with aqueous test solutions prepared from 10′000 ppm DMSO stock solutions. After drying the leaf discs were infested with a thrips population of mixed ages. The samples were assessed for mortality 6 days after infestation.

Spodoptera littoralis = Spodoptera littoralis (Egyptian cotton leaf worm), sprayed cotton leaf discs; settings: foliar, 72 h, application rate 200 ppm, L1 larvae on cotton leaf discs, 3 days after infestation, read-out: control (at least one of mortality, anti-feedant effect, growth inhibition)
Experimental: Cotton leaf discs were placed on agar in 24-well microtiter plates and sprayed with aqueous test solutions prepared from 10′000 ppm DMSO stock solutions. After drying the leaf discs were infested with five L1 larvae. The samples were assessed for mortality, anti-feedant effect, and growth inhibition 3 days after infestation. Control of Spodoptera littoralis by a test sample is noted when at least one of mortality, anti-feedant effect, and growth inhibition is better than the untreated sample.

Plutella xylostella = Plutella xylostella (diamond back moth), artificial diet; settings: 120 h, application rate 200 ppm, L2 larvae on artificial diet, 5 days after infestation, read-out: control (at least one of mortality, growth inhibition)
Experimental: as §1, with “larvae (10” for “larvae (6”, “to 15” for “to 10”, “of Plutella xyllostella” for “of Diabrotica balteata”

Diabrotica balteata [2] = experiment: Diabrotica balteata (corn root worm), sprayed maize sprouts; settings: 96 h, application rate 200 ppm, L2 larvae on sprayed maize sprouts, 4 days after infestation, read-out: control (at least one of mortality, growth inhibition)
Experimental: as §1, with “Maize sprouts, placed on an agar layer in 24-well” for “24-well”, “plates” for “plates with artificial diet”, “spraying.” for “pipetting.”, “4” for “5”

Cc1cc(C2=CSC(c3cc(Cl)cc(Cl)c3)(C(F)(F)F)C2)ccc1C(=O)NC1CCC1 (stereo not shown) [Compound A1, N-cyclobutyl-4-[2-(3,5-dichlorophenyl)-2-(trifluoromethyl)-3H-thiophen-4-yl]-2-methyl-benzamide]
≥ 80%: mortality at 50 ppm (Euschistus heros) | mortality at 200 ppm (Tetranychus urticae) | mortality at 200 ppm (Diabrotica balteata [1]) | mortality at 200 ppm (Heliothis virescens) | mortality at 200 ppm (Thrips tabaci) | percent control (mortality, anti-feedant effect or growth inhibition) at 200 ppm (Spodoptera littoralis) | mortality at 200 ppm (Plutella xylostella)

Cc1cc(C2=CSC(c3cc(Cl)cc(Cl)c3)(C(F)(F)F)C2)ccc1C(=O)NCC(F)(F)F (stereo not shown) [Compound A2, 4-[2-(3,5-dichlorophenyl)-2-(trifluoromethyl)-3H-thiophen-4-yl]-2-methyl-N-(2,2,2-trifluoroethyl)benzamide]
≥ 80%: mortality at 50 ppm (Euschistus heros) | mortality at 200 ppm (Tetranychus urticae) | mortality at 200 ppm (Diabrotica balteata [1]) | mortality at 200 ppm (Heliothis virescens) | mortality at 200 ppm (Thrips tabaci) | percent control (mortality, anti-feedant effect or growth inhibition) at 200 ppm (Spodoptera littoralis) | mortality at 200 ppm (Plutella xylostella)

Cc1cc(C2=CSC(c3cc(Cl)cc(Cl)c3)(C(F)(F)F)C2)ccc1C(=O)NCC(=O)NCC(F)(F)F (stereo not shown) [Compound A3, 4-[2-(3,5-dichlorophenyl)-2-(trifluoromethyl)-3H-thiophen-4-yl]-2-methyl-N-[2-oxo-2-(2,2,2-trifluoroethylamino)ethyl]benzamide]
≥ 80%: mortality at 50 ppm (Euschistus heros) | mortality at 200 ppm (Tetranychus urticae) | mortality at 200 ppm (Diabrotica balteata [1]) | mortality at 200 ppm (Heliothis virescens) | mortality at 200 ppm (Thrips tabaci) | percent control (mortality, anti-feedant effect or growth inhibition) at 200 ppm (Spodoptera littoralis) | mortality at 200 ppm (Plutella xylostella)

Cc1cc(C2=CSC(c3cc(Cl)cc(Cl)c3)(C(F)(F)F)C2)ccc1C(=O)NC1CS(=O)(=O)C1 (stereo not shown) [Compound A4, 4-[2-(3,5-dichlorophenyl)-2-(trifluoromethyl)-3H-thiophen-4-yl]-N-(1,1-dioxothietan-3-yl)-2-methyl-benzamide]
≥ 80%: mortality at 50 ppm (Euschistus heros) | mortality at 200 ppm (Tetranychus urticae) | mortality at 200 ppm (Diabrotica balteata [1]) | mortality at 200 ppm (Heliothis virescens) | mortality at 200 ppm (Thrips tabaci) | percent control (mortality, anti-feedant effect or growth inhibition) at 200 ppm (Spodoptera littoralis) | mortality at 200 ppm (Plutella xylostella)

Cc1cc(C2=CSC(c3cc(Cl)cc(Cl)c3)(C(F)(F)F)C2)ccc1C(=O)NC1CSC1 (stereo not shown) [Compound A5, 4-[2-(3,5-dichlorophenyl)-2-(trifluoromethyl)-3H-thiophen-4-yl]-2-methyl-N-(thietan-3-yl)benzamide]
≥ 80%: mortality at 50 ppm (Euschistus heros) | mortality at 200 ppm (Tetranychus urticae) | mortality at 200 ppm (Diabrotica balteata [1]) | mortality at 200 ppm (Heliothis virescens) | mortality at 200 ppm (Thrips tabaci) | percent control (mortality, anti-feedant effect or growth inhibition) at 200 ppm (Spodoptera littoralis) | mortality at 200 ppm (Plutella xylostella)

Cc1cc(C2=CSC(c3cc(Cl)cc(Cl)c3)(C(F)(F)F)C2)ccc1C(N)=O (stereo not shown) [Compound A6, 4-[2-(3,5-dichlorophenyl)-2-(trifluoromethyl)-3H-thiophen-4-yl]-2-methyl-benzamide]
≥ 80%: mortality at 200 ppm (Diabrotica balteata [1]) | mortality at 200 ppm (Heliothis virescens) | percent control (mortality, anti-feedant effect or growth inhibition) at 200 ppm (Spodoptera littoralis) | mortality at 200 ppm (Plutella xylostella)

Cc1cc(C2=CSC(c3cc(Cl)cc(Cl)c3)(C(F)(F)F)C2)ccc1C(=O)N[C@H]1C[S@@+]([O-])C1 (stereo partly shown) [Compound A7, 4-[2-(3,5-dichlorophenyl)-2-(trifluoromethyl)-3H-thiophen-4-yl]-2-methyl-N-(1-oxidothietan-1-ium-3-yl)benzamide]
≥ 80%: mortality at 50 ppm (Euschistus heros) | mortality at 200 ppm (Tetranychus urticae) | mortality at 200 ppm (Diabrotica balteata [1]) | mortality at 200 ppm (Heliothis virescens) | mortality at 200 ppm (Thrips tabaci) | percent control (mortality, anti-feedant effect or growth inhibition) at 200 ppm (Spodoptera littoralis) | mortality at 200 ppm (Plutella xylostella)

Cc1cc(C2=CSC(c3cc(Cl)cc(Cl)c3)(C(F)(F)F)C2)ccc1C(=O)NCc1ccccn1 (stereo not shown) [Compound A8, 4-[2-(3,5-dichlorophenyl)-2-(trifluoromethyl)-3H-thiophen-4-yl]-2-methyl-N-(2-pyridylmethyl)benzamide]
≥ 80%: mortality at 200 ppm (Tetranychus urticae) | mortality at 200 ppm (Diabrotica balteata [1]) | mortality at 200 ppm (Heliothis virescens) | mortality at 200 ppm (Thrips tabaci) | percent control (mortality, anti-feedant effect or growth inhibition) at 200 ppm (Spodoptera littoralis) | mortality at 200 ppm (Plutella xylostella)

CCN1OC[C@@H](NC(=O)c2ccc(C3=CSC(c4cc(Cl)cc(Cl)c4)(C(F)(F)F)C3)cc2C)C1=O (stereo partly drawn) [Compound A9, 4-[2-(3,5-dichlorophenyl)-2-(trifluoromethyl)-3H-thiophen-4-yl]-N-[(4R)-2-ethyl-3-oxo-isoxazolidin-4-yl]-2-methyl-benzamide]
≥ 80%: mortality at 50 ppm (Euschistus heros) | mortality at 200 ppm (Tetranychus urticae) | mortality at 200 ppm (Diabrotica balteata [1]) | mortality at 200 ppm (Heliothis virescens) | mortality at 200 ppm (Thrips tabaci) | percent control (mortality, anti-feedant effect or growth inhibition) at 200 ppm (Spodoptera littoralis) | mortality at 200 ppm (Plutella xylostella)

CON/C=N/C(=O)c1ccc(C2=CSC(c3cc(Cl)cc(Cl)c3)(C(F)(F)F)C2)cc1C (stereo not shown) [Compound A10, (NE)-4-[2-(3,5-dichlorophenyl)-2-(trifluoromethyl)-3H-thiophen-4-yl]-N-[(methoxyamino)methylene]-2-methyl-benzamide]
≥ 80%: mortality at 200 ppm (Tetranychus urticae) | mortality at 200 ppm (Diabrotica balteata [1]) | mortality at 200 ppm (Heliothis virescens) | percent control (mortality, anti-feedant effect or growth inhibition) at 200 ppm (Spodoptera littoralis) | mortality at 200 ppm (Plutella xylostella)

Cc1cc(C2=C[S+]([O-])C(c3cc(Cl)cc(Cl)c3)(C(F)(F)F)C2)ccc1C(=O)NCC(F)(F)F (stereo not shown) [Compound B1, 4-[2-(3,5-dichlorophenyl)-1-oxido-2-(trifluoromethyl)-3H-thiophen-1-ium-4-yl]-2-methyl-N-(2,2,2-trifluoroethyl)benzamide]
≥ 80%: mortality at 200 ppm (Heliothis virescens) | percent control (mortality, anti-feedant effect or growth inhibition) at 200 ppm (Spodoptera littoralis) | mortality at 200 ppm (Plutella xylostella)

Cc1cc(C2=CS(=O)(=O)C(c3cc(Cl)cc(Cl)c3)(C(F)(F)F)C2)ccc1C(=O)NCC(F)(F)F (stereo not shown) [Compound B2, 4-[2-(3,5-dichlorophenyl)-1,1-dioxo-2-(trifluoromethyl)-3H-thiophen-4-yl]-2-methyl-N-(2,2,2-trifluoroethyl)benzamide]
≥ 80%: mortality at 200 ppm (Diabrotica balteata [1]) | mortality at 200 ppm (Heliothis virescens) | percent control (mortality, anti-feedant effect or growth inhibition) at 200 ppm (Spodoptera littoralis) | mortality at 200 ppm (Plutella xylostella)

N#Cc1cc(C2=CSC(c3cc(Cl)c(Cl)c(Cl)c3)(C(F)(F)F)C2)ccc1-n1cncn1 (stereo not shown) [Compound C1, 2-(1,2,4-triazol-1-yl)-5-[2-(3,4,5-trichlorophenyl)-2-(trifluoromethyl)-3H-thiophen-4-yl]benzonitrile]
≥ 80%: mortality at 200 ppm (Diabrotica balteata [1]) | mortality at 200 ppm (Heliothis virescens) | percent control (mortality, anti-feedant effect or growth inhibition) at 200 ppm (Spodoptera littoralis) | mortality at 200 ppm (Plutella xylostella)

CCN1OC[C@@H](NC(=O)c2ccc(C3=CS[C@@](c4cc(Cl)cc(Cl)c4)(C(F)(F)F)C3)cc2C)C1=O [Compound D7, 4-[(2S)-2-(3,5-dichlorophenyl)-2-(trifluoromethyl)-3H-thiophen-4-yl]-N-(2-ethyl-3-oxo-isoxazolidin-4-yl)-2-methyl-benzamide]
≥ 80%: mortality at 200 ppm (Tetranychus urticae) | mortality at 200 ppm (Thrips tabaci) | mortality at 200 ppm (Diabrotica balteata [2]) | percent control (mortality, anti-feedant effect or growth inhibition) at 200 ppm (Spodoptera littoralis) | mortality at 200 ppm (Plutella xylostella)

Cc1cc(C2=CS[C@@](c3cc(Cl)cc(Cl)c3)(C(F)(F)F)C2)ccc1C(=O)N[C@H]1C[S@@+]([O-])C1 [Compound D8, 4-[(2S)-2-(3,5-dichlorophenyl)-2-(trifluoromethyl)-3H-thiophen-4-yl]-2-methyl-N-(1-oxothietan-3-yl)benzamide]
≥ 80%: mortality at 200 ppm (Tetranychus urticae) | mortality at 200 ppm (Thrips tabaci) | mortality at 200 ppm (Diabrotica balteata [2]) | percent control (mortality, anti-feedant effect or growth inhibition) at 200 ppm (Spodoptera littoralis) | mortality at 200 ppm (Plutella xylostella)
